Source: US8828908B2, “Herbicidally active bicyclic 1,3-dione compounds” (Syngenta Limited, priority 2007, dated 2014)

Columns and labels:
Format in all cases: in vivo
Avena fatua (AVEFA) [1] = test: Example B post-emergence herbicidal greenhouse test; conditions: 360 h, evaluated after 15 days, 100=total damage to plant, 0=no damage
Procedure: (§1) Seeds of a variety of test species were sown in standard soil in pots. After cultivation for one day (pre-emergence) or after 10 days cultivation (post-emergence) under controlled conditions in a glasshouse, the plants were sprayed with an aqueous spray solution derived from the formulation of the technical active ingredient in 0.6 ml acetone and 45 ml formulation solution containing 10.6% Emulsogen EL (Registry number 61791-12-6), 42.2% N-methylpyrrolidone, 42.2% dipropylene glycol monomethyl ether (Registry number 34590-94-8) and 0.2% X-77 (Registry number 11097-66-8). The test plants were then grown in a greenhouse under optimum conditions until, 15 days later for post-emergence and 20 days for pre-emergence, the test was evaluated (100=total damage to plant; 0=no damage to plant).
(§2) Alopecurus myosuroides (ALOMY), Avena fatua (AVEFA), Lolium perenne (LOLPE), Setaria faberi (SETFA), Digitaria sanguinalis (DIGSA), Echinochloa crus-galli (ECHCG)

Setaria faberi (SETFA) [2] = test: as above; conditions: 360 h, evaluated after 15 days, 100=total damage to plant, 0=no damage
Procedure: as §1, §2

[3] = system: Echinochloa crus-galli (ECHCG); test: as above; conditions: 360 h, evaluated after 15 days, 100=total damage to plant, 0=no damage
Procedure: as §1, §2

Lolium perenne (LOLPE) [4] = test: as above; conditions: 360 h, evaluated after 15 days, 100=total damage to plant, 0=no damage
Procedure: as §1, §2

[5] = system: Alopecurus myosuroides (ALOMY); test: as above; conditions: 360 h, evaluated after 15 days, 100=total damage to plant, 0=no damage
Procedure: as §1, §2

[6] = system: Digitaria sanguinalis (DIGSA); test: as above; conditions: 360 h, evaluated after 15 days, 100=total damage to plant, 0=no damage
Procedure: as §1, §2

Avena fatua (AVEFA) [7] = test: Example B pre-emergence herbicidal greenhouse test; conditions: 480 h, evaluated after 20 days, 100=total damage to plant, 0=no damage
Procedure: as §1, §2

Setaria faberi (SETFA) [8] = test: Example B pre-emergence herbicidal greenhouse test; conditions: 480 h, evaluated after 20 days, 100=total damage to plant, 0=no damage
Procedure: as §1, §2

[9] = system: Echinochloa crus-galli (ECHCG); test: Example B pre-emergence herbicidal greenhouse test; conditions: 480 h, evaluated after 20 days, 100=total damage to plant, 0=no damage
Procedure: as §1, §2

Lolium perenne (LOLPE) [10] = test: Example B pre-emergence herbicidal greenhouse test; conditions: 480 h, evaluated after 20 days, 100=total damage to plant, 0=no damage
Procedure: as §1, §2

[11] = system: Alopecurus myosuroides (ALOMY); test: Example B pre-emergence herbicidal greenhouse test; conditions: 480 h, evaluated after 20 days, 100=total damage to plant, 0=no damage
Procedure: as §1, §2

[12] = system: Digitaria sanguinalis (DIGSA); test: Example B pre-emergence herbicidal greenhouse test; conditions: 480 h, evaluated after 20 days, 100=total damage to plant, 0=no damage
Procedure: as §1, §2

Avena fatua (AVEFA) [13] = test: Example A pre-emergence herbicidal glasshouse test; conditions: 312 h, Rate 250 g/ha, evaluated after 13 days, 100=total damage to plant, 0=no damage to plant
Procedure: (§3) Seeds of a variety of test species were sown in standard soil in pots. After cultivation for one day (pre-emergence) or after 8 days cultivation (post-emergence) under controlled conditions in a glasshouse (at 24/16° C., day/night; 14 hours light; 65% humidity), the plants were sprayed with an aqueous spray solution derived from the formulation of the technical active ingredient in acetone/water (50:50) solution containing 0.5% Tween 20 (polyoxyethelyene sorbitan monolaurate, CAS RN 9005-64-5). The test plants were then grown in a glasshouse under controlled conditions in a glasshouse (at 24/16° C., day/night; 14 hours light; 65% humidity) and watered twice daily. After 13 days for pre and post-emergence, the test was evaluated (100=total damage to plant; 0=no damage to plant).
(§4) Alopecurus myosuroides (ALOMY), Avena fatua (AVEFA), Setaria faberi (SETFA), Echinochloa crus-galli (ECHCG), Solanum nigrum (SOLNI) and Amaranthus retroflexus (AMARE)

Setaria faberi (SETFA) [14] = test: Example A pre-emergence herbicidal glasshouse test; conditions: 312 h, Rate 250 g/ha, evaluated after 13 days, 100=total damage to plant, 0=no damage to plant
Procedure: as §3, §4

[15] = system: Echinochloa crus-galli (ECHCG); test: Example A pre-emergence herbicidal glasshouse test; conditions: 312 h, Rate 250 g/ha, evaluated after 13 days, 100=total damage to plant, 0=no damage to plant
Procedure: as §3, §4

[16] = system: Alopecurus myosuroides (ALOMY); test: Example A pre-emergence herbicidal glasshouse test; conditions: 312 h, Rate 250 g/ha, evaluated after 13 days, 100=total damage to plant, 0=no damage to plant
Procedure: as §3, §4

[17] = system: Amaranthus retroflexus (AMARE); test: Example A pre-emergence herbicidal glasshouse test; conditions: 312 h, Rate 250 g/ha, evaluated after 13 days, 100=total damage to plant, 0=no damage to plant
Procedure: as §3, §4

Avena fatua (AVEFA) [18] = test: Example A post-emergence herbicidal glasshouse test; conditions: 312 h, evaluated after 13 days, 100=total damage to plant, 0=no damage
Procedure: as §3, §4

Setaria faberi (SETFA) [19] = test: as above; conditions: 312 h, evaluated after 13 days, 100=total damage to plant, 0=no damage
Procedure: as §3, §4

[20] = system: Echinochloa crus-galli (ECHCG); test: as above; conditions: 312 h, evaluated after 13 days, 100=total damage to plant, 0=no damage
Procedure: as §3, §4

[21] = system: Alopecurus myosuroides (ALOMY); test: as above; conditions: 312 h, evaluated after 13 days, 100=total damage to plant, 0=no damage
Procedure: as §3, §4

[22] = system: Amaranthus retroflexus (AMARE); test: as above; conditions: 312 h, evaluated after 13 days, 100=total damage to plant, 0=no damage
Procedure: as §3, §4

Row | SMILES | pest or weed control at 125 g/ha (Avena fatua (AVEFA) [1]) [%] | pest or weed control at 125 g/ha (Setaria faberi (SETFA) [2]) [%] | pest or weed control at 125 g/ha [3] [%] | pest or weed control at 125 g/ha (Lolium perenne (LOLPE) [4]) [%] | pest or weed control at 125 g/ha [5] [%] | pest or weed control at 125 g/ha [6] [%] | pest or weed control at 250 g/ha (Avena fatua (AVEFA) [7]) [%] | pest or weed control at 250 g/ha (Setaria faberi (SETFA) [8]) [%] | pest or weed control at 250 g/ha [9] [%] | pest or weed control at 250 g/ha (Lolium perenne (LOLPE) [10]) [%] | pest or weed control at 250 g/ha [11] [%] | pest or weed control at 250 g/ha [12] [%] | pest or weed control at 250 g/ha (Avena fatua (AVEFA) [13]) [%] | pest or weed control at 250 g/ha (Setaria faberi (SETFA) [14]) [%] | pest or weed control at 250 g/ha [15] [%] | pest or weed control at 250 g/ha [16] [%] | pest or weed control at 250 g/ha [17] [%] | pest or weed control at 250 g/ha (Avena fatua (AVEFA) [18]) [%] | pest or weed control at 250 g/ha (Setaria faberi (SETFA) [19]) [%] | pest or weed control at 250 g/ha [20] [%] | further results
1 | Cc1ccc(-c2ccc(F)c(Cl)c2)cc1C1=C(O)[C@H]2CC[C@H](C2)C1=O (single isomer, unassigned) [Compound T29] | 0 | 60 | 50 | 0 | 30 | 10 | 0 | 70 | 20 | 20 | 10 | 0 | – | – | – | – | – | – | – | – | –
2 | Cc1cc(-c2ccccc2)cc(C)c1C1=C(O)[C@H]2CC[C@H](C2)C1=O [Compound T6, 3-(3,5-dimethylbiphen-4-yl)bicyclo[3.2.1]-2,4-dione] | 10 | 0 | 30 | 10 | 20 | 10 | 0 | 80 | 90 | 50 | 60 | 100 | – | – | – | – | – | – | – | – | –
3 | CC(=O)OC1=C(c2c(C)cc(-c3ccccc3)cc2C)C(=O)[C@@H]2CC[C@H]1C2 [Compound P1] | 0 | 70 | 60 | 20 | 20 | 60 | 30 | 70 | 100 | 60 | 30 | 70 | – | – | – | – | – | – | – | – | –
4 | Cc1ccc(-c2ccc(Cl)c(F)c2)cc1C1=C(O)[C@H]2CC[C@H](C2)C1=O (single isomer, unassigned) [Compound T31] | 0 | 80 | 70 | 20 | 30 | 70 | 40 | 100 | 80 | 30 | 70 | 70 | – | – | – | – | – | – | – | – | –
5 | Cc1ccc(-c2ccc(Cl)c(C#N)c2)cc1C1=C(O)[C@H]2CC[C@H](C2)C1=O (single isomer, unassigned) [Compound T25] | 0 | 30 | 0 | 0 | 20 | 80 | 0 | 80 | 50 | 20 | 0 | 80 | – | – | – | – | – | – | – | – | –
6 | Cc1ccc(-c2cccc(Cl)c2)cc1C1=C(O)[C@H]2CC[C@H](C2)C1=O (single isomer, unassigned) [Compound T7] | 0 | 0 | 0 | 0 | 0 | 0 | 10 | 10 | 0 | 0 | 0 | 20 | – | – | – | – | – | – | – | – | –
7 | Cc1ccc(-c2ccc(Cl)cc2Cl)cc1C1=C(O)[C@H]2CC[C@H](C2)C1=O (single isomer, unassigned) [Compound T12] | 10 | 80 | 70 | 0 | 0 | 60 | 40 | 60 | 40 | 70 | 30 | 100 | – | – | – | – | – | – | – | – | –
8 | CCc1ccc(-c2ccc(F)cc2)cc1C1=C(O)[C@H]2CC[C@H](C2)C1=O [Compound T3] | 30 | 90 | 90 | 0 | 50 | 80 | 60 | 100 | 100 | 70 | 50 | 80 | – | – | – | – | – | – | – | – | –
9 | Cc1cc(-c2ccc(C)c(C3=C(O)[C@H]4CC[C@H](C4)C3=O)c2)ccc1Cl (single isomer, unassigned) [Compound T24] | – | 0 | 30 | – | – | 0 | 0 | 20 | 80 | 10 | 40 | 70 | – | – | – | – | – | – | – | – | –
10 | Cc1ccc(-c2ccc(Cl)nc2)cc1C1=C(O)[C@H]2CC[C@H](C2)C1=O (single isomer, unassigned) [Compound T81] | – | – | – | – | – | – | – | – | – | – | – | – | 40 | 70 | 50 | 30 | 20 | 70 | 90 | 80 | pest or weed control at 250 g/ha [21]: 50%; pest or weed control at 250 g/ha [22]: 0%
11 | CCc1ccc(-c2ccc(Cl)cc2Cl)cc1C1=C(O)[C@H]2C=C[C@H](CC2)C1=O [Compound T56] | – | – | – | – | – | – | – | – | – | – | – | – | 0 | 50 | 30 | 10 | 60 | 70 | 100 | 100 | pest or weed control at 250 g/ha [21]: 60%; pest or weed control at 250 g/ha [22]: 10%
12 | CCc1ccc(-c2cnc(Cl)cc2C)cc1C1=C(O)[C@H]2CC[C@H](C2)C1=O (single isomer, unassigned) [Compound T77] | – | – | – | – | – | – | – | – | – | – | – | – | 0 | 30 | 0 | 0 | 0 | 0 | 90 | 80 | pest or weed control at 250 g/ha [21]: 30%; pest or weed control at 250 g/ha [22]: 0%
13 | CCc1ccc(-c2ccc(Cl)nc2Cl)cc1C1=C(O)[C@H]2CC[C@H](C2)C1=O (single isomer, unassigned) [Compound T80] | – | – | – | – | – | – | – | – | – | – | – | – | 50 | 100 | 90 | 30 | 0 | 70 | 100 | 90 | pest or weed control at 250 g/ha [21]: 70%; pest or weed control at 250 g/ha [22]: 0%
